pIC50: −log10 of the molar value.
Legend:
[1] = biological target: Protein-tyrosine kinase 2-beta (Homo sapiens) (UniProt Q14289); assay: Inhibition of PTK2B at 10 uM
[2] = Oxidative metabolic stability in human liver microsomes assessed as compound remaining at 5 uM after 120 mins; format: ADME, Microsome; details: read-out: Stability
[3] = biological target: Tyrosine-protein kinase JAK1 (Homo sapiens) (UniProt P23458); assay: Inhibition of JAK1 at 10 uM
[4] = biological target: Dual specificity protein kinase CLK1 (Homo sapiens) (UniProt P49759); assay: Inhibition of CLK1 at 10 uM
[5] = biological target: Macrophage colony-stimulating factor 1 receptor (Homo sapiens) (UniProt P07333); assay: Inhibition of CSF1R at 10 uM
[6] = biological target: Dual specificity protein kinase TTK (Homo sapiens) (UniProt P33981); assay: Inhibition of TTK at 10 uM
[7] = biological target: Protein kinase C beta type (Homo sapiens) (UniProt P05771); assay: Inhibition of PRKCB1 at 10 uM
[8] = biological target: Serine/threonine-protein kinase PLK2 (Homo sapiens) (UniProt Q9NYY3); assay: Inhibition of PLK2 at 10 uM
[9] = biological target: Proto-oncogene tyrosine-protein kinase receptor Ret (Homo sapiens) (UniProt P07949); assay: Inhibition of RET at 10 uM
[10] = biological target: Aurora kinase A (Homo sapiens) (UniProt O14965); assay: Inhibition of Aurora A at 10 uM
[11] = biological target: Dual specificity tyrosine-phosphorylation-regulated kinase 1B (Homo sapiens) (UniProt Q9Y463); assay: Inhibition of DYRK1B at 10 uM
[12] = biological target: Receptor tyrosine-protein kinase erbB-4 (Homo sapiens) (UniProt Q15303); assay: Inhibition of ERBB4 at 10 uM
[13] = biological target: Calcium/calmodulin-dependent protein kinase type II subunit alpha (Homo sapiens) (UniProt Q9UQM7); assay: Inhibition of CAMK2A at 10 uM
[14] = biological target: Mitogen-activated protein kinase 9 (Homo sapiens, UniProt P45984); assay: Inhibition of recombinant JNK2 after 60 mins by TR-FRET assay
[15] = biological target: Tyrosine-protein kinase Lck (Homo sapiens) (UniProt P06239); assay: Inhibition of LCK at 10 uM
[16] = system: RAF proto-oncogene serine/threonine-protein kinase (Homo sapiens), P04049 [Y340D,Y341D]; assay: Inhibition of RAF1 Y340D, Y341D mutant at 10 uM
[17] = biological target: Receptor-interacting serine/threonine-protein kinase 2 (Homo sapiens) (UniProt O43353); assay: Inhibition of RIPK2 at 10 uM
[18] = biological target: Serine/threonine-protein kinase 16 (Homo sapiens) (UniProt O75716); assay: Inhibition of STK16 at 10 uM
[19] = biological target: RAC-alpha serine/threonine-protein kinase (Homo sapiens) (UniProt P31749); assay: Inhibition of AKT1 at 10 uM
RAC-alpha serine/threonine-protein kinase (Homo sapiens), sequence (P31749 whole entry): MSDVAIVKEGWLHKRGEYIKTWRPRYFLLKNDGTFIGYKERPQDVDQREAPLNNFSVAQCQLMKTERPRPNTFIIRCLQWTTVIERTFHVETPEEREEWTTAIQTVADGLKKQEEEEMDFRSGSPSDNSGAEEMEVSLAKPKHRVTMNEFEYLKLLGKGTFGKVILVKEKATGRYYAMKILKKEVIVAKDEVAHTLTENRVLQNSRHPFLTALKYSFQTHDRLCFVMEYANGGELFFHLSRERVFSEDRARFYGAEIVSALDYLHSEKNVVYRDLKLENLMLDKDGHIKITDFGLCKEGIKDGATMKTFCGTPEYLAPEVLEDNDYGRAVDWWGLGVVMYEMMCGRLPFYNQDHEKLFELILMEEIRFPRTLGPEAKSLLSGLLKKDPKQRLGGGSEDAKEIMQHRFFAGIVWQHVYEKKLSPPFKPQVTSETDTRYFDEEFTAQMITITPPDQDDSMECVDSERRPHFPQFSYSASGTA

MDR1 [20] = assay: Efflux ratio of permeability from basolateral to apical side over apical to basolateral side in MDCK2 cells expressing MDR1; format: ADME, cell-based, Canis lupus familiaris, MDCK-II; details: dog, MDCK-MDR1
[21] = biological target: Cyclin-dependent kinase 1/cyclin B (Homo sapiens) (UniProt P06493+P14635+Q8WWL7+O95067); assay: Inhibition of CDK1/cyclin B at 10 uM; format: protein-complex assay
[22] = biological target: Rho-associated protein kinase 2 (Homo sapiens) (UniProt O75116); assay: Inhibition of ROCK2 at 10 uM
MDR1 [23] = assay: Apparent permeability of the compound from apical to basolateral direction in MDCK2 cells expressing MDR1; format: ADME, cell-based, Canis lupus familiaris, MDCK-II; details: dog, MDCK-MDR1
[24] = biological target: Insulin receptor (Homo sapiens) (UniProt P06213); assay: Inhibition of INSR at 10 uM
[25] = biological target: Tyrosine-protein kinase SYK (Homo sapiens) (UniProt P43405); assay: Inhibition of SYK at 10 uM
[26] = biological target: T1, Mitogen-activated protein kinase 1 (Homo sapiens, UniProt P28482); assay: Inhibition of MAPK1 at 10 uM
T1 sequence (P28482 whole entry): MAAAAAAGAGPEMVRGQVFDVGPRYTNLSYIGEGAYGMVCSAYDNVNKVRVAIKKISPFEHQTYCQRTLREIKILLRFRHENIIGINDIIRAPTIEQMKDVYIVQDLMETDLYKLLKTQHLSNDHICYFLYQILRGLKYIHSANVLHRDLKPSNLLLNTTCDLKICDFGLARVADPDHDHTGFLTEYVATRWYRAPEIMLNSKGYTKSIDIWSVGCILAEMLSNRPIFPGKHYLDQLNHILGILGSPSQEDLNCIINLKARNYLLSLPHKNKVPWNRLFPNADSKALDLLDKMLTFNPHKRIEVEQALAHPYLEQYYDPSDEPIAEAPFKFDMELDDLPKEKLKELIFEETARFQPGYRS

[27] = biological target: T2, Mitogen-activated protein kinase 10 (Homo sapiens, UniProt P53779); assay: Inhibition of recombinant JNK3 after 60 mins by TR-FRET assay
T2 sequence (P53779 whole entry): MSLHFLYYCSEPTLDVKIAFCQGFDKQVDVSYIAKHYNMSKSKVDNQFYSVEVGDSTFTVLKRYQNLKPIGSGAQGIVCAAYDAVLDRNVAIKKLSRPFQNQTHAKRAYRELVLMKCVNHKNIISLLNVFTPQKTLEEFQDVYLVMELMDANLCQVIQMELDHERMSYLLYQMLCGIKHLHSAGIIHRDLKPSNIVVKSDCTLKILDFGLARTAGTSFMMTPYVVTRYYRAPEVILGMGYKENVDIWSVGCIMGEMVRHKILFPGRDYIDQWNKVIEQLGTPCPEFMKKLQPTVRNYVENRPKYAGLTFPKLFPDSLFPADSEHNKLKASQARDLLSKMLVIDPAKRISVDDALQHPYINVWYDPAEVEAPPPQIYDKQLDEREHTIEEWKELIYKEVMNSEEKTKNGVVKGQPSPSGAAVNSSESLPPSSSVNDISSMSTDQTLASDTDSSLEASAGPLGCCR

[28] = biological target: Mitogen-activated protein kinase 14 (Homo sapiens, UniProt Q16539); assay: Inhibition of recombinant p38alpha after 60 mins by TR-FRET assay
[29] = Oxidative metabolic stability in mouse liver microsomes assessed as compound remaining at 5 uM after 120 mins; format: ADME, Microsome; details: read-out: Stability
[30] = biological target: Serine/threonine-protein kinase MARK2 (Homo sapiens) (UniProt Q7KZI7); assay: Inhibition of MARK2 at 10 uM
Serine/threonine-protein kinase MARK2 (Homo sapiens), sequence (Q7KZI7 whole entry): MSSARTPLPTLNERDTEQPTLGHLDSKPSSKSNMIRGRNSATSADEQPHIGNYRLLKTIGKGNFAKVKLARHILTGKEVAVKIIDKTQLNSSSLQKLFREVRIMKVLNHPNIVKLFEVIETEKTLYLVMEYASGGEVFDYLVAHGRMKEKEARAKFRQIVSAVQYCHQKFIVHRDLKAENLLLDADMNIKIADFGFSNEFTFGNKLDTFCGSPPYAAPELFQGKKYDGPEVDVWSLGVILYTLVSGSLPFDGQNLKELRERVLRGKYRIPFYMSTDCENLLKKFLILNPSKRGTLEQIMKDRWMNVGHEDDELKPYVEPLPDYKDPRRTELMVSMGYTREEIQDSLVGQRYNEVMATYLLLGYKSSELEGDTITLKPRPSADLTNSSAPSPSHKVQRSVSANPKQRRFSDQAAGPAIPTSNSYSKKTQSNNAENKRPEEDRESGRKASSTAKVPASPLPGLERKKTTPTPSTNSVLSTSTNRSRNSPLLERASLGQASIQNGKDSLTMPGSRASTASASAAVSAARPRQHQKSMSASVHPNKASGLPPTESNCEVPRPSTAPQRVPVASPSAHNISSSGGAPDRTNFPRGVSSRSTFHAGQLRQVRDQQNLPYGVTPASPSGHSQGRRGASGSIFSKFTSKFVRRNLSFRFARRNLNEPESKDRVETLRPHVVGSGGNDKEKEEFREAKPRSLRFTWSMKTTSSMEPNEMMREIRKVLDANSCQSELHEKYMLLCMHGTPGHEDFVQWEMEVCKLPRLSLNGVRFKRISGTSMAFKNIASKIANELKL

Mus musculus = assay: Inhibition of kainic acid-induced JNK activation in FVB mouse hippocampus assessed as reduction of phosphorylated c-jun level at 300 mg/kg, po administered 1 hr before kainic acid challenge measured after 4 hrs; format: functional
[31] = biological target: Cyclin-dependent kinase 5/CDK5 activator 1 (Homo sapiens) (UniProt Q00535+Q15078); assay: Inhibition of CDK5/p25 at 10 uM; format: protein-complex assay
[32] = biological target: Serine/threonine-protein kinase Chk1 (Homo sapiens) (UniProt O14757); assay: Inhibition of CHEK1 at 10 uM
[33] = biological target: Tyrosine-protein kinase ABL1 (Homo sapiens) (UniProt P00519); assay: Inhibition of ABL1 at 10 uM
Tyrosine-protein kinase ABL1 (Homo sapiens), sequence (P00519 whole entry): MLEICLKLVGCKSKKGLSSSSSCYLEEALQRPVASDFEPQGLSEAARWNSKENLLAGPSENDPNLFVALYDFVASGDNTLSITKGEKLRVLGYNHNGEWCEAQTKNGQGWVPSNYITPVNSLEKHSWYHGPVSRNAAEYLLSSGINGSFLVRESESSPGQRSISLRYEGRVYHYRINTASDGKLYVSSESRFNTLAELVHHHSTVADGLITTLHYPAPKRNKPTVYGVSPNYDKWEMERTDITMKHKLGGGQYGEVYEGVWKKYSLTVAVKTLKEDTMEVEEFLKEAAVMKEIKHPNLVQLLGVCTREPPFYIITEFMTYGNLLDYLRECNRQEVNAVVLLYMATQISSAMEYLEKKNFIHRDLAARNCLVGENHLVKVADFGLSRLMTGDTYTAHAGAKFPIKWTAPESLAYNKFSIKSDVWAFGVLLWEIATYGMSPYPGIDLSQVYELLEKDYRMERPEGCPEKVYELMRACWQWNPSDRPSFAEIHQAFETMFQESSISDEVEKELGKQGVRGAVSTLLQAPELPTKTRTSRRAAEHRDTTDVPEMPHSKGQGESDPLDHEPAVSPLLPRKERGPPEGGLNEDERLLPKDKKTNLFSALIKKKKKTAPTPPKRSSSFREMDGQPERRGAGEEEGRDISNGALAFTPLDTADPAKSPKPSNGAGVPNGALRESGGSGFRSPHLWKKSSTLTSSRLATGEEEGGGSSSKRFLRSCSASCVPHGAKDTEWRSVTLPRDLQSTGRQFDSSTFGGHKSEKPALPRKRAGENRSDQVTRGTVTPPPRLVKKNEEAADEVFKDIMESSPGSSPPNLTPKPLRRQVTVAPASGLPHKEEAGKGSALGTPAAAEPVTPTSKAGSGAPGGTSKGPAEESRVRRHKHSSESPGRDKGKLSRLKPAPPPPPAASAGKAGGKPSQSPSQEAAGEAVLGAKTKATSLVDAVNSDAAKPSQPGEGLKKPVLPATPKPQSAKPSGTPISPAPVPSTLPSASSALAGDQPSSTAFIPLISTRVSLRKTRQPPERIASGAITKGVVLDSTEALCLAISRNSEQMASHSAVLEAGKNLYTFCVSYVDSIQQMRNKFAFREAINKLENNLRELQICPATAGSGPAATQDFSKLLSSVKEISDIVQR

[34] = biological target: Glycogen synthase kinase-3 beta (Homo sapiens) (UniProt P49841); assay: Inhibition of GSK3B at 10 uM
[35] = biological target: Leucine-rich repeat serine/threonine-protein kinase 2 (Homo sapiens) (UniProt Q5S007); assay: Inhibition of LRRK2 at 10 uM
[36] = biological target: Platelet-derived growth factor receptor alpha (Homo sapiens) (UniProt P16234); assay: Inhibition of PDGFRA at 10 uM
[37] = biological target: Serine/threonine-protein kinase 3 (Homo sapiens) (UniProt Q13188); assay: Inhibition of STK3 at 10 uM
[38] = biological target: Cyclin-dependent kinase 2/cyclin A (Homo sapiens) (UniProt P24941+P20248+P78396); assay: Inhibition of CDK2/cyclin A at 10 uM; format: protein-complex assay
[39] = biological target: PI3-kinase p110-alpha/p85-alpha (Homo sapiens) (UniProt P27986+P42336); assay: Inhibition of PIK3CA/PIK3R1 at 10 uM; format: protein-complex assay
[40] = biological target: Mitogen-activated protein kinase 8 (Homo sapiens, UniProt P45983); assay: Inhibition of recombinant JNK1 after 60 mins by TR-FRET assay
[41] = biological target: cAMP-dependent protein kinase catalytic subunit alpha (Homo sapiens) (UniProt P17612); assay: Inhibition of PRKACA at 10 uM
[42] = biological target: Serine/threonine-protein kinase PAK 4 (Homo sapiens) (UniProt O96013); assay: Inhibition of PAK4 at 10 uM
[43] = biological target: Serine/threonine-protein kinase PLK3 (Homo sapiens) (UniProt Q9H4B4); assay: Inhibition of PLK3 at 10 uM
Serine/threonine-protein kinase PLK3 (Homo sapiens), sequence (Q9H4B4 whole entry, looked up): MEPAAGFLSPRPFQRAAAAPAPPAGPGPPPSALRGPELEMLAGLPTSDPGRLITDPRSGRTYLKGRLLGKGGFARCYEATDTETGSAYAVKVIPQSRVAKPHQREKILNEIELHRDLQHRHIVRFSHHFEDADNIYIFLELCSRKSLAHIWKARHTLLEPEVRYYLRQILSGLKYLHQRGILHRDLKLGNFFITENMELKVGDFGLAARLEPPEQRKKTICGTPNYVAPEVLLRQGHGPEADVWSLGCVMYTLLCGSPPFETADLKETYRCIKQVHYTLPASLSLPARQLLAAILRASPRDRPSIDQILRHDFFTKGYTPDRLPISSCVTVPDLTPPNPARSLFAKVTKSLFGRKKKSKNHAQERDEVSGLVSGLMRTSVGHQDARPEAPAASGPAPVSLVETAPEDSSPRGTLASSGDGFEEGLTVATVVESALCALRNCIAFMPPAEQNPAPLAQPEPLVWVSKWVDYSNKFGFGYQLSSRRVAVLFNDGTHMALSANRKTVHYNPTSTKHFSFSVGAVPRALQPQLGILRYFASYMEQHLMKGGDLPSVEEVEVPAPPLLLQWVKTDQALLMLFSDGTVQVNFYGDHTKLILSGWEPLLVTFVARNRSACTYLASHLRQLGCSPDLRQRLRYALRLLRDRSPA

[44] = biological target: T1, Mitogen-activated protein kinase 1; assay: Inhibition of recombinant ERK2 after 60 mins by TR-FRET assay
[45] = biological target: Serine/threonine-protein kinase PLK1 (Homo sapiens) (UniProt P53350); assay: Inhibition of PLK1 at 10 uM
[46] = biological target: T2, Mitogen-activated protein kinase 10; details: 10 uM
Description: Inhibition of MAPK10 at 10 uM

[47] = biological target: Receptor-type tyrosine-protein kinase FLT3 (Homo sapiens) (UniProt P36888); assay: Inhibition of FLT3 at 10 uM

Tyrosine-protein kinase JAK1 (Homo sapiens), sequence (P23458 whole entry): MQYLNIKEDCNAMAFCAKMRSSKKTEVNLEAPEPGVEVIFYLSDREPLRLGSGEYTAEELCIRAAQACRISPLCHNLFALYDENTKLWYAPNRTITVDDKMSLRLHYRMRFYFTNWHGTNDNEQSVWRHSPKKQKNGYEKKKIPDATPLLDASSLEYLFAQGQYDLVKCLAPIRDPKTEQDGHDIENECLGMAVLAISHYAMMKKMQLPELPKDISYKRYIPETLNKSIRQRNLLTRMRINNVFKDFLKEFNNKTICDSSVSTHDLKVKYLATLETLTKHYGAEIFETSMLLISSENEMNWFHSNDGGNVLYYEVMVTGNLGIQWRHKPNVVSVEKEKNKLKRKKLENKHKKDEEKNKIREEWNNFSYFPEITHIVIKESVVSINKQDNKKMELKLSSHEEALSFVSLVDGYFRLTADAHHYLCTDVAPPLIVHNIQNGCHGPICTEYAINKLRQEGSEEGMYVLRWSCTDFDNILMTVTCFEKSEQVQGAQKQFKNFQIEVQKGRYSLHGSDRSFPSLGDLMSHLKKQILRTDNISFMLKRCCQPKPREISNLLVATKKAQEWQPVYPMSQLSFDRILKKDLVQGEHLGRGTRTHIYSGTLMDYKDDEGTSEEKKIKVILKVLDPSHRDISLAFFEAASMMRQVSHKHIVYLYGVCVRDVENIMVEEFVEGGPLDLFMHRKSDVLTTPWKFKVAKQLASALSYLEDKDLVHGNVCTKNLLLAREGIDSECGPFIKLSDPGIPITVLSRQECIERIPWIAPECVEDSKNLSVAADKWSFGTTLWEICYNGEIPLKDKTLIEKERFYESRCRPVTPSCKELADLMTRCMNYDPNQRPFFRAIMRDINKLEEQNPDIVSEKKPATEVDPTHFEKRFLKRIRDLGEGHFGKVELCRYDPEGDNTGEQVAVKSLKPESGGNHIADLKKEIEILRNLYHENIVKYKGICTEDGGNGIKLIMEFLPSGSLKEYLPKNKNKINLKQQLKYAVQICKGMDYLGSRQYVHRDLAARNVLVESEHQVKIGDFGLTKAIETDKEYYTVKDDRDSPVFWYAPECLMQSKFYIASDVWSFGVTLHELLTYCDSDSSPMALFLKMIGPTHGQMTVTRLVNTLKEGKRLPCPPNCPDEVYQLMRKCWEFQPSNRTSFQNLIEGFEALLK

inhibition [1]: -5%
remaining at 2 h, 5 µM [2]: 50%
inhibition [3]: 1%
inhibition [4]: 7%
inhibition [5]: 5%
inhibition [6]: > 50%
inhibition [7]: 3%
inhibition [8]: 1%
inhibition [9]: 16%
inhibition [10]: 31%
inhibition [11]: 29%
inhibition [12]: -1%
inhibition [13]: 6%
pIC50 [14]: 7.37
inhibition [15]: 11%
inhibition [16]: 19%
inhibition [17]: 13%
inhibition [18]: 29%
inhibition [19]: 4%
efflux ratio (MDR1 [20]): 1.6
inhibition [21]: 14%
inhibition [22]: 9%
Papp A→B (MDR1 [23]): 27 ×10⁻⁶ cm/s
inhibition [24]: -2%
inhibition [25]: 19%
inhibition [26]: 3%
pIC50 [27]: 7.96
pIC50 [28]: < 4.30
remaining at 2 h, 5 µM [29]: 29%
inhibition [30]: 9%
inhibition [31]: 19%
inhibition [32]: 5%
inhibition [33]: 2%
inhibition [34]: 25%
inhibition [35]: 15%
inhibition [36]: 2%
inhibition [37]: 3%
inhibition [38]: 19%
inhibition [39]: 13%
pIC50 [40]: 7.85
inhibition [41]: 3%
inhibition [42]: 1%
inhibition [43]: -1%
pIC50 [44]: < 4.30
inhibition [45]: 5%
inhibition [46]: 96%
inhibition [47]: 12%
Structure (SMILES): O=C(Cc1cccc2cnccc12)Nc1scc(Cl)c1-c1ncn[nH]1
inhibition in vivo at 300 mg/kg (Mus musculus): 51%
